Data on 33 compounds can be found in US8609680B2, “2,3-dihydro-1H-inden-1-yl-2,7-diazaspiro[3.5] nonane derivatives” (Pfizer Inc., priority 2010, dated 2013).

Assay [1] deals with T1, human GHSR1a (Homo sapiens, UniProt Q92847).
T1 construct: expressed in transfected cells; host or cells: HEK293 Tetracycline-Inducible cell line, used as membranes
The experiment in a line: Human Ghrelin SPA Binding Assay. An excerpt: The SPA format was utilized for high throughput screening of test compounds and filter binding served for more comprehensive binding characterization.
Human Ghrelin SPA Binding Assay

For assay [2], the target named is T1, human GHSR1a. Briefly: Human Ghrelin Functional Assay (DELFIA GTP-binding assay). Format: biochemical. The settings on record: GTP-Europium exchange, human GHSR1a membranes, with and without ghrelin at EC80. On the procedure:
Human Ghrelin Functional Assay
To measure the ability of test compounds in the present invention to modulate the activity of human GHSR1a (agonize, antagonize, partially agonize, inversely agonize), a DELFIA GTP-binding assay (Perkin Elmer, AD0260 and AD0261) is performed. The assay monitors the ligand-dependent exchange of GDP for GTP. GPCR activation results in an increase in fluorescence as receptor-bound GDP is replaced by Europium-labeled GTP.
Ghrelin functional assays are performed in a final volume of 39.5 μl containing 720 ng human GHSR1a (HEK293 Tetracycline-Inducible cell line expressing the human growth secretagogue receptor la, prepared as membranes), 9 nM GTP-Europium and varying concentrations of test compound or vehicle. To test for receptor antagonism, membranes are incubated in the presence of agonist ghrelin (Anaspec, 24158) at the EC80 concentration, plus test compound or vehicle.
Briefly, test compounds are prepared at room temperature in 384-well plates (Matrix, 4340). […] Samples are then transferred as 6 μl to 384-well filter plates (Pall, 5071) containing 30 μl of 24 μg/ml hGHSR1a membrane and 0.35 mg/ml saponin (Perkin Elmer, AD0261) in basal buffer.
The mixture is incubated 24 minutes at room temperature with gentle shaking, followed by the addition of 3.5 μl of 100 nM GTP-Europium in 50 mM HEPES, pH 7.4. Samples are shielded from light and incubated for 90 minutes further at room temperature with gentle shaking. The reactions are suctioned dry with vacuum, washed three times with 75 μl ice cold 1× GTP Wash Solution (Perkin Elmer, AD0261), and immediately read on the Envision 2101 Multilabel Reader (Perkin Elmer) using excitation filter 320 nm and emission filter 615 nm.

Setting [3] is: SPA format, [125I] ghrelin displacement, human GHSR1a membranes, Ki=IC50/(1+[ligand]/Kd).

Where two headings read alike, the source gives them in different places.

T1 sequence (Q92847 whole entry): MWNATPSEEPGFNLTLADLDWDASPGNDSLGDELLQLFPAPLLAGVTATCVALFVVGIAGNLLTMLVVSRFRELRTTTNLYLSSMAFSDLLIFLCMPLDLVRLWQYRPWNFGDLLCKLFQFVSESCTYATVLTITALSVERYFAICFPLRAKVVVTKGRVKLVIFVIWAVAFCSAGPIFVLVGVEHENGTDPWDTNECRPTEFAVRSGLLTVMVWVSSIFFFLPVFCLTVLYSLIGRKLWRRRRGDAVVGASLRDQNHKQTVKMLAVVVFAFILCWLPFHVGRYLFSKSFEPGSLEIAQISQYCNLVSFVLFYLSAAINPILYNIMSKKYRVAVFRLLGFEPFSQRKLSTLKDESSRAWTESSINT

“5-{(1R)-1-[7-(2,3-dihydro[1,4]dioxino[2,3-b]pyridin-6-yl)acetyl)-2,7-diazaspiro[3.5]non-2-yl]-2,3-dihydro-1H-inden-5-yl}pyridine-2-carboxamide [Example 9A]” yielded an IC50 in assay [1] (SPA format, [125I] ghrelin displacement, human GHSR1a membranes from HEK293 Tetracycline-Inducible cell line) of 0.0159 µM. This compound yielded a Ki in assay [1] (setting [3]) of 0.0139 µM. For the same compound, in assay [2], the functional comment entry is “inverse agonist”.
Consider `COc1ccc(CC(=O)N2CCC3(CC2)CN(C2CCc4cc(-c5cc(C#N)ccn5)ccc42)C3)nc1` (racemic) [Example 2C], for which, in assay [1], the IC50 is 0.0137 µM and the Ki is 0.038 µM. In addition, the functional comment result in assay [2] is recorded as “inverse agonist”.
In assay [1], `COc1ccc(CC(=O)N2CCC3(CC2)CN(C2CCc4cc(-c5cc(OC)ncn5)ccc42)C3)nc1` (racemic) [Example 2F] had an IC50 of 0.0359 µM and an inhibition constant Ki of 0.0502 µM. The functional comment result in assay [2] is reported as “inverse agonist”.
In assay [1], `COc1ccc(CC(=O)N2CCC3(CC2)CN(C2CCc4cc(-c5cnccn5)ccc42)C3)nc1` (racemic) [Example 2H] showed an IC50 of 0.0922 µM and a Ki of 0.218 µM. The functional comment entry in assay [2] is “inverse agonist”.
In the same order, the values of `COc1ccc(CC(=O)N2CCC3(CC2)CN(C2CCc4cc(-c5nc(C)cc(C)n5)ccc42)C3)nc1` (racemic) [Example 2I] are 0.0153 µM, 0.0512 µM and “inverse agonist”.
In the case of `COc1ccc(CC(=O)N2CCC3(CC2)CN(C2CCc4cc(-c5cccc(C)n5)ccc42)C3)nc1` (racemic) [Example 2J], in assay [1], the IC50 is 0.022 µM. For the same compound, the functional comment result in assay [2] is “inverse agonist”.
`COc1ccc(CC(=O)N2CCC3(CC2)CN(C2CCc4cc(-c5ccc(OC)cn5)ccc42)C3)nc1` (stereo not drawn) [Example 2A, 7-[(5-Methoxypyridin-2-yl)acetyl]-2-[5-(5-methoxypyridin-2-yl)-2,3-dihydro-1H-inden-1-yl]-2,7-diazaspiro[3.5]nonane]: in assay [1], the IC50 came to 0.0227 µM and the affinity corresponds to a Ki of 0.0913 µM. In addition, in assay [2], the functional comment result is recorded as “inverse agonist”.
`CCc1cnc(-c2ccc3c(c2)CC[C@H]3N2CC3(CCN(C(=O)Cc4ccc(OC)cn4)CC3)C2)nc1` [Example 3A, 2-[(1R)-5-(5-Ethylpyrimidin-2-yl)-2,3-dihydro-1H-inden-1-yl]-7-[(5-methoxypyridin-2-yl)acetyl]-2,7-diazaspiro[3.5]nonane] showed an IC50 in assay [1] of 0.00946 µM. In assay [1] (setting [3]), the affinity, expressed as Ki, was 0.00903 µM. Also, in assay [2], the functional comment result is reported as “inverse agonist”.
With `CCc1cc(-c2ccc3c(c2)CC[C@H]3N2CC3(CCN(C(=O)Cc4ccc(OC)cn4)CC3)C2)ncn1` [Example 3AA], in assay [1], the IC50 turned out to be 0.0098 µM and the Ki came to 0.00859 µM. Besides, in assay [2], the functional comment entry is reported as “inverse agonist”.
In assay [1], `COc1ccc(CC(=O)N2CCC3(CC2)CN([C@@H]2CCc4cc(-c5ncco5)ccc42)C3)cc1` [Example 3AD] gave an IC50 of 0.0195 µM and a Ki of 0.0155 µM. In assay [2], the functional comment entry is on record as “inverse agonist”.
In assay [1], `O=C(Cc1ccc(C2CC2)cn1)N1CCC2(CC1)CN([C@@H]1CCc3cc(-c4ncccn4)ccc31)C2` [Example 3AF] displayed an IC50 of 0.00741 µM and a Ki of 0.00613 µM. The functional comment result in assay [2] is recorded as “inverse agonist”.
On to `Cc1cc(C)nc(-c2ccc3c(c2)CC[C@H]3N2CC3(CCN(C(=O)Cc4cn5nc(C)sc5n4)CC3)C2)n1` [Example 3AL], for which, in assay [1], the IC50 worked out at 0.00773 µM and the Ki was found to be 0.00691 µM. Further, in assay [2], the functional comment result is “inverse agonist”.
Take `Cc1cnc(-c2ccc3c(c2)CC[C@H]3N2CC3(CCN(C(=O)Cc4cn5nc(C)sc5n4)CC3)C2)nc1` [Example 3AN]: in assay [1], the half-inhibitory concentration (IC50) came to 0.0166 µM and the affinity corresponds to a Ki of 0.0149 µM. Moreover, the functional comment entry in assay [2] was “inverse agonist”.
On to `Cc1cc(-c2ccc3c(c2)CC[C@H]3N2CC3(CCN(C(=O)Cc4cn5nc(C)sc5n4)CC3)C2)nc(C)n1` [Example 3AO], for which, in assay [1], the IC50 amounted to 0.0168 µM and the Ki amounted to 0.0151 µM. Moreover, the functional comment result in assay [2] is reported as “inverse agonist”.
`Cc1ccc(CC(=O)N2CCC3(CC2)CN([C@@H]2CCc4cc(-n5nccn5)ccc42)C3)nc1` [Example 6A, 7-[(5-methylpyridin-2-yl)acetyl]-2-[5-(2H-1,2,3-triazol-2-yl)-2,3-dihydro-1H-inden-1-yl]-2,7-diazaspiro[3.5]nonane] came in with a Ki in assay [1] of 0.0548 µM.
On to `CCOc1ccc(CC(=O)N2CCC3(CC2)CN([C@@H]2CCc4cc(-n5nccn5)ccc42)C3)nc1` [Example 6G], for which, in assay [1], the IC50 was 0.0432 µM and the Ki worked out at 0.0344 µM.
In assay [1], `COc1ccc(CC(=O)N2CCC3(CC2)CN([C@@H]2CCc4cc(-n5cncn5)ccc42)C3)nc1` [Example 6I] returned an IC50 of 0.483 µM and a Ki of 0.417 µM.
With `COc1ccc(CC(=O)N2CCC3(CC2)CN([C@@H]2CCc4cc(-c5nnc(C)s5)ccc42)C3)nc1` [Example 6J], in assay [1], the IC50 amounted to 0.327 µM and the affinity, expressed as Ki, was 0.264 µM.
As for `Cc1ccc(CC(=O)N2CCC3(CC2)CN([C@@H]2CCc4cc(-c5ncccn5)ccc42)C3)c(C(N)=O)c1` [Example 7A], in assay [1], the IC50 worked out at 0.0422 µM and the Ki is 0.0375 µM.
Regarding `COc1ccc(CC(=O)N2CCC3(CC2)CN([C@@H]2CCc4cc(-c5ncccn5)ccc42)C3)c(C(N)=O)c1` [Example 7B], in assay [1], the IC50 stood at 0.0255 µM and the Ki amounted to 0.0222 µM.
In assay [1], `COc1ccc(CC(=O)N2CCC3(CC2)CN([C@@H]2CCc4cc(-n5cc(C)cn5)ccc42)C3)nc1` [Example 8A, 7-[(5-methoxypyridin-2-yl)acetyl]-2-[(1R)-5-(4-methyl-1H-pyrazol-1-yl)-2,3-dihydro-1H-inden-1-yl]-2,7-diazaspiro[3.5]nonane] came in with an IC50 of 0.029 µM and a Ki of 0.0247 µM.
As for `COc1ccc(CC(=O)N2CCC3(CC2)CN([C@@H]2CCc4cc(-n5cc(C)cn5)ccc42)C3)cc1` [Example 8B], in assay [1], the IC50 was 0.0105 µM and the Ki worked out at 0.00897 µM.
In assay [1], `COc1ccc(CC(=O)N2CCC3(CC2)CN([C@@H]2CCc4cc(-n5cccn5)ccc42)C3)nc1` [Example 8C] displayed an IC50 of 0.0823 µM and a Ki of 0.0664 µM.
For `COc1ccc(CC(=O)N2CCC3(CC2)CN([C@@H]2CCc4cc(-c5ccc(C(N)=O)nc5)ccc42)C3)nc1` [Example 9B], in assay [1], the IC50 was 0.0552 µM and the Ki was 0.0475 µM.
Turning to `Cc1ccc(CC(=O)N2CCC3(CC2)CN([C@@H]2CCc4cc(-c5ccc(C(N)=O)nc5)ccc42)C3)nc1` [Example 9C], in assay [1], the IC50 turned out to be 0.117 µM and affinity was put at a Ki of 0.102 µM.
As for `Cc1cn2cc(CC(=O)N3CCC4(CC3)CN([C@@H]3CCc5cc(-c6ccc(C(N)=O)nc6)ccc53)C4)nc2s1` [Example 9D], in assay [1], the IC50 was found to be 0.0122 µM and the affinity corresponds to a Ki of 0.0106 µM.
In the same order, the values of `NC(=O)c1ccc(-c2ccc3c(c2)CC[C@H]3N2CC3(CCN(C(=O)Cc4cn5ccccc5n4)CC3)C2)cn1` [Example 9E] are 0.0337 µM and 0.0292 µM.
For `COc1ccc(CC(=O)N2CCC3(CC2)CN([C@@H]2CCc4cc(-c5cnc(C(N)=O)cn5)ccc42)C3)nc1` [Example 10A, 5-[(1R)-1-{7-[(5-methoxypyridin-2-yl)acetyl]-2,7-diazaspiro[3.5]non-2-yl}-2,3-dihydro-1H-inden-5-yl]pyrazine-2-carboxamide], in assay [1], the IC50 came to 0.0626 µM and the inhibitory constant (Ki) worked out at 0.0555 µM.
In the same order, the values of `Cc1ccn2cc(CC(=O)N3CCC4(CC3)CN([C@@H]3CCc5cc(-c6cnc(C(N)=O)cn6)ccc53)C4)nc2c1` [Example 10B] are 0.0234 µM and 0.0203 µM.
Turning to `NC(=O)c1cnc(-c2ccc3c(c2)CC[C@H]3N2CC3(CCN(C(=O)Cc4cn5ccccc5n4)CC3)C2)cn1` [Example 10C], in assay [1], the IC50 worked out at 0.0931 µM and the Ki worked out at 0.0808 µM.
In assay [1], `COc1ccc(CC(=O)N2CCC3(CC2)CN([C@@H]2CCc4cc(-c5cc(C(N)=O)ncn5)ccc42)C3)nc1` [Example 10D] came in with an IC50 of 0.0947 µM and a Ki of 0.0829 µM.
For `CCc1ccc(CC(=O)N2CCC3(CC2)CN([C@@H]2CCc4cc(-c5cnc(C(N)=O)cn5)ccc42)C3)nc1` [Example 10H], in assay [1], the IC50 amounted to 0.141 µM and the Ki was determined as 0.123 µM.
In assay [1], `COc1ccc(CC(=O)N2CCC3(CC2)CN([C@@H]2CCc4cc(-c5ccc(C(N)=O)cn5)ccc42)C3)nc1` [Example 11A, 6-((R)-1-{7-[2-(5-Methoxy-pyridin-2-yl)-acetyl]-2,7-diaza-spiro[3.5]non-2-yl}indan-5-yl)-nicotinamide] came in with an IC50 of 0.0333 µM and a Ki of 0.0286 µM.

For orientation: IC50 means the concentration that inhibits the measured activity by half. As usually defined, the Ki is the equilibrium dissociation constant of an inhibitor or competing ligand from its target. Low readings indicate a stronger hold on the target, high ones a looser hold on the target.
